{"source": "patent US20230104487A1", "about": "“11-(4-CHLOROPHENYL)-4-(2,3-DIHYDRO-1H-INDOLE-1-CARBONYL)-3,11-DIMETHYL-5,10,DIOXATRICYCLO[7.4.0.0,2,6,]TRIDECA-1,3,6,8-TETRAEN-13-ONE AND DERIVATIVES AS DESTABILIZER OF CRY1 FOR THE TREATMENT OF CIRCADIAN RHYTHM ASSOCIATED DISEASES AND DISORDERS” (KOC UNIVERSITESI, priority 2019, published 2023)", "key": {"U2-OS cells": {"tested_on": "U2-OS cells", "assay": "Cell cytotoxicity test (MTT)", "type": "cell-based, human", "details": "dose dependent", "protocol": "Human osteosarcoma U2-OS cell lines were used for the cytotoxicity assay. Cells were seeded in triplicate to clear 96-well plates with 4000 cells/well then grown for 48 h. Cells were treated with molecules at desired concentrations (final DMSO concentration 0.5%) in DMEM. Cells were incubated with molecules for 48 h. Cell viability was measured by adding tetrazolium dye 3-[4,5-dimethylthiazol-2-yl]-2,5 diphenyl tetrazolium bromide (MTT) which is converted to insoluble purple color formazan as a result of the mitochondrial activity. To measure the purple color after incubating cells with MTT reagent medium was replaced with DMSO:EtOH (50:50) mixture for 4 hours and absorbance of wells were measured at 570 nm by the spectrophotometer. Cells treated with 5% final DMSO concentration (known as toxic to cells) as […] controls.\nInitially, toxicity of selected molecules was assessed by MTT using immortalized human osteosarcoma (U2-OS) cells at concentrations of 20 μM, 10 μM and, 2.5 μM. Molecules with relative cell viability less than 90% at 2.5 μM were eliminated. […] In this assay the effect of the 14 molecules were measured according to the CRYL::LUC decay rate. […] Then cells were treated with cycloheximide (CHX) to inhibit the protein synthesis and bioluminescence was recorded for 18 h. […]"}, "[1]": {"tested_on": "Cry1−/−/Cry2−/− mouse embryonic fibroblasts", "assay": "Circadian reporter assay in CRY double knockout MEFs (mPer2-dLuc)", "type": "cell-based", "details": "DKO-MEF transfected with mPer2-luc", "protocol": "Luminescence values were recorded at 32° C. for each 30 minutes with 15 seconds integration time via Synergy H1 luminometer for a week. For LumiCycle, 400×10^3 U2-OS Bmal1-dLuc or NIH3T3 mPer2-dLuc cells were seeded to 35 mm plates and then procedure given above was followed with a change in the last step. Plates were sealed with vacuum grease and placed to LumiCycle. Each plate was recorded continuously every 10 minutes for 70 seconds at 37° C. via photomultiplier tubes. Period and amplitude data were obtained from LumiCycle Analysis software. To detect the effect of FORMULA I in the absence of CRYs, Cry1^−/−/Cry2^−/− mouse embryonic fibroblasts (CRYDKO MEFs) transiently transfected with pGL3-Per2-Luc (luciferase reporter) were used. 3×10^5 CRYDKO cells were seeded in 35 mm clear plates. Next day, cells were transfected with 4000 ng pGL3-Per2-Luc via Fugene6 transfection reagent according to the manufacturer's instruction. In short, 3:1 ratio of Fugene6 in μl against transfected DNA amount in μg was kept in transfections. 72 h after transfection cells were synchronized with DXM for two hours. Then, medium was changed with lumicycle medium having DMSO or molecule, sealed with vacuum grease, and placed to LumiCycle."}}}
{"smiles": "Cc1c(C(=O)N2CCc3ccccc32)oc2ccc3c(c12)C(=O)CC(C)(c1ccc(Cl)cc1)O3", "note": "(centres unmarked) [FORMULA I, 11-(4-chlorophenyl)-4-(2,3-dihydro-1H-indole-1-carbonyl)-3,11-dimethyl-5,10,dioxatricyclo[7.4.0.0,2,6,]trideca-1,3,6,8-tetraen-13-one]", "values": [{"measurement": "toxicity on U2-OS cells", "setting": "U2-OS cells", "result": "no effect on the stability of LUC and any toxic effect"}, {"measurement": "effect on rhythm in absence of CRYs", "setting": "[1]", "result": "had no effect"}]}
